# Literature values, collected in patent US11504326B2, “Lipid emulsion therapy for treating acute cannabinoid intoxication” (priority 2019, dated 2022).
# Read-outs that look alike come from different tables or passages of the source.
# What was measured:
# [1] = in vivo
# psychoactive effects = conditions: for dose that impairs attention, concentration, short-term memory, and executive functioning: adolescents and adults
structure (smiles),measurement,setting,value
"CCCCCc1cc(O)c2c(c1)OC(C)(C)[C@@H]1CCC(C)=C[C@@H]21 [THC, tetrahydrocannabinol]",protein-bound,[1],95-99%
same,volume of distribution,[1],2.5 to 3.5 L/kg
same,"dose that impairs attention, concentration, short-term memory, and executive functioning",psychoactive effects; ingested,5 to 20 mg
same,dose at which psychotropic effects occur,"psychoactive effects; ingested, naive users",5 to 20 mg
same,"dose that impairs attention, concentration, short-term memory, and executive functioning",psychoactive effects; inhaled,2 to 3 mg
same,dose sufficient to produce drug effects,"psychoactive effects; inhaled, naïve user",2 to 3 mg
